Measured values published in patent publication US10800806B2, “Sterol derivatives and use thereof for treating diseases involving transformed astrocyte cells or for treating malignant haemopathies” (BETA INNOV, priority 2012, dated 2020).
Entries after “also recorded” stand apart in the source; their conditions may differ.

Tests used:
C6 cells = assay: Anti-GBM activity in vitro on cultures of C6 cells (cell counting, protein assay, MTT test); type: cell-based, rat; conditions: 15 μm, ethanol 3%
Protocol: Plastic flat-bottomed 96-well culture plates (NUNC, USA) treated for cell culture (Sigma-Aldrich, ref. 114754) are used; 1500 cells are seeded per well in 200 μl of culture medium. At the time of treatment, 100 μl of pure culture medium, 100 μl of culture medium containing ethanol, or liposomes, or 100 μl of culture medium containing the active ingredients are added per well; the final volume of the culture medium, after treatment, is therefore 300 μl for all the wells.
The cultures are incubated in a Sanyo incubator (Japan, model MCO-19AlC-UV) at 37° C. and in an atmosphere with 5% CO2 and saturated in humidity. The cells are observed with an inverted microscope (Nikon Eclipse TS100, Japan) and the photographs are taken with a camera (DIGITAL camera with c-mount; LABOVER, France). The culture hood is a microbiological safety hood MSC (thermo SCIENTIFIC, model HERA SAFE KS12, France).
The type C6 cell line was obtained by Benda et al. (16) from rat brain tumours, induced by N-methylnitrosourea. This cell type is used as “in vitro” and “in vivo” model for evaluating anti-GBM potential. The lines originate from the former Strasbourg Neurochemistry Centre (U44 INSERM and UPR 416 CNRS).
The culture medium is made up of 70% Minimum Essential Medium (MEM; (Fischer Scientifique, ref. 61100) and 30% Hanks solution (SIGMA, ref. H 9269). The following are added to the culture medium: foetal calf serum (FCS; Fischer Scientifique, ref. 10108165) at a final concentration of 5% (v/v), an antibiotic solution of ciprofloxacin hydrochloride 5 μg/mL (EUROMEDEX, ref. UC5074) and a solution of Fungizone 2.5 μg/mL (INVITROGEN, ref. 15290-026). The doubling time of this cell type is 17 h. • GBM lines of human origin
The active ingredients are either dissolved in absolute ethanol (AnalaR, NORMAPUR, VWR, France) or in the form of a liposomal solution, such as 10 μl of the stock solutions diluted in 990 μl and then added to the culture wells (200 μl of culture medium) giving concentrations of 30.0, 15.0, 7.5 and 3.3 μM (final volume of culture medium per well BI-GBM: 300 μl).
When the active ingredients are in ethanolic solution, the culture medium contains […] ethanol (v/v).
A method of cell counting on photographs was used.
For example, in the case of the cultures in 96-well plates and as a function of the magnification of the microscope used (objectives×10 or ×20, oculars×10), a photograph taken represents a field of view with a diameter equal to 1/5 of the diameter of a well. Therefore the total number of cells in a well is equal to […] the number of cells per photograph. This technique was compared with a standard technique (trypsinization of the cell layer, centrifugation of the cells, suspension of the cells in physiological saline solution and counting with a THOMA cell) in the case of the C6 cells. The results obtained are identical for both methods.
The culture medium is withdrawn from each well and 50 μl of Laemmli buffer (0.1 ml of Tris, 0.8 ml of glycerol, 1.6 mL of 10% SDS, 8 ml q.s.f ultrapure water) is added per well.
In control wells, 10 μl of a solution of bovine serum albumin range (crystallized BSA, Sigma) is added; the range is from 0 to 20 μg per well. The wells are then supplemented with 40 μl of Laemmli buffer. Finally, 200 μl of solution of BCA reagent is added (Pierce, USA; BCA Protein Assay Kit; ThemoScientific, France).
The culture plates are incubated for 30 min at 37° C. The optical density for each well is read and quantified by a plate reader (BioRad, USA, iMark Microplate reader 12222) at 570 nm.
This test makes it possible to detect the cellular respiration, especially the mitochondrial respiration. The stock solution of tetrazolium salt MTT (3-(4,5-dimethylthiazol-2-yl)-2,5-diphenyl tetrazolium bromide, Sigma-Aldrich, USA, ref. M5655) is prepared with 10 mg of MIT/ml of PBS buffer (phosphate-buffered saline, SIGMA, ref. D 1408). […]

[1] = tested on: colon cancer cells (ECACC-HT29/219); assay: Activity in vitro on colon cancer cells; type: cell-based, human; conditions: 15 μM, improved liposomal form
Source text: They were obtained from the ECACC collection (Ref. ECACC-85061109). The culture conditions are based on the recommendations in the Sigma-Aldrich information leaflet. • Neuroblastoma (line SH-SY5Y)
(§1) The cancer cells used are from liver (ref. ATCC-HB-8065), prostate (ref. ATCC-HTB-81), breast (ref. ATCC-HTB-19) cancer cells, and from colon cancer cells (ECACC-HT29/219) of human origin, mentioned above.

[2] = tested on: breast cancer cells (ATCC-HTB-19); assay: Activity in vitro on breast cancer cells; type: cell-based, human; conditions: 30 μM, ethanolic form
Protocol: They were obtained from ATCC (ref. ATCC-HTB-19). The culture medium is the same as that used for the liver cancer lines. The doubling time is 20 h. • Colon carcinoma (line HT29/219)
as §1

[3] = tested on: CD133+ stem cells (U87-MG cultures); assay: Immunolabelling of the CD133+ stem cells with the A/B peroxidase system; type: cell-based, human; conditions: for CD133+ cells, percentage relative to the controls: 30 μM in ethanolic form
Protocol: The anti-CD133 (poly, Abnova), anti-GFAP (poly, Sigma), anti-NFL (mono, Santa Cruz) and anti-fibroblast (ERTR7, Santa Cruz) primary antibodies are diluted to 1/100 in the case of the first three antibodies and to 1/50 in the case of the last.
The secondary antibodies corresponding to recognition of the primary antibodies are anti-rabbit antibodies coupled to peroxidase (goat, Sigma), anti-mouse coupled to Dylight 488 (sheep, Sigma), anti-mouse coupled to Dylight 488 (sheep, Sigma) and anti-rat coupled to FITC (rabbit, Sigma). The dilutions are 1/4000, 1/1000, 1/4000 and 1/400 respectively.
The cells are permeabilized for 5 min with 0.1% Triton X-100 (Sigma) in PBS (Fisher Scientific). The nonspecific sites are blocked with 2% BSA (Sigma) in PBS. Incubations are carried out for 1 h at ambient temperature, 48 h at 4° C., 24 h at 4° C. and 1 h at ambient temperature for the anti-CD133, anti-GFAP, anti-NFL and anti-Fibroblast antibodies respectively. Incubation with the secondary antibodies is carried out for 1 h at ambient temperature. The CD133 positive cells are detected by the DAB/H2O2 system (Sigma), and observed with an optical microscope.
The immunolabelling is carried out as described above (section II, A).

| Compound | Live residual cells (C6 cells) [%] | toxicity to colon cancer cells [1] | effect on cellular division and respiration [2] | CD133+ cells, percentage relative to the controls ([3]; 4 days of treatment) [%] | CD133+ cells, percentage relative to the controls ([3]; 22 days of treatment) [%] | destruction of the CD133+ stem cells ([3]; ethanolic form, 22 days of treatment) | appearance of CD133+ stem cells after replacing the culture medium with fresh drug-free medium ([3]; medium replaced at 22 days) |
| --- | --- | --- | --- | --- | --- | --- | --- |
| CC(C)CCCC(C)C1CCC2C3C(OC(=O)OC(C)(C)C)C=C4CC(OC(=O)C5COC(C)(C)O5)CCC4(C)C3CCC12C (stereo not shown) [Molecule 2.a, 7-((tert-butoxycarbonyl)oxy)-10,13-dimethyl-17-(6-methylheptan-2-yl)-2,3,4,7,8,9,10,11,12,13,14,15,16,17-tetradecahydro-1H-cyclopenta[a]phenanthren-3-yl 2,2-dimethyl-1,3-dioxolane-4-carboxylate] | 100 |  |  |  |  |  |  |
| CC(=O)OC1C=C2CC(OC(=O)C3COC(C)(C)O3)CCC2(C)C2CCC3(C)C(C(C)CCCC(C)C)CCC3C12 (stereo not shown) [Molecule 2.b, 7-acetoxy-10,13-dimethyl-17-(6-methylheptan-2-yl)-2,3,4,7,8,9,10,11,12,13,14,15,16,17-tetradecahydro-1H-cyclopenta[a]phenanthren-3-yl 2,2-dimethyl-1,3-dioxolane-4-carboxylate] |  | not toxic | no effect | 100 | 0 | completely destroyed; also recorded: completely destroys the stem cells | does not lead to the appearance of CD133+ stem cells |
